Reference: the supplement of paper PMC10307832

How the values were obtained:
Assay in all cases: relative viability (nuclei count vs DMSO), 5 days (fraction); higher = more cells survive
[1] = compound: CNC(=O)c1cc(Oc2ccc(NC(=O)Nc3ccc(Cl)c(C(F)(F)F)c3)cc2)ccn1 [Sorafenib] + CCNC(=O)c1noc(-c2cc(C(C)C)c(O)cc2O)c1-c1ccc(CN2CCOCC2)cc1 [Luminespib] (partner 0.01 µM)
Summary of the method: (§1)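 Relative viability is defined as nuclei in treated wells over nuclei in vehicle wells. Duplicate plates were run and medians reported. Lung cancer cell lines in 1536-well plates were dosed by pin tool one day after seeding, with one drug or with a fixed anchor-drug dose plus five library-drug doses (not always all listed) in √10 steps, and nuclei were counted after 5 days.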

[2] = compound: CNC(=O)c1cc(Oc2ccc(NC(=O)Nc3ccc(Cl)c(C(F)(F)F)c3)cc2)ccn1 [Sorafenib] + CS(=O)(=O)CCNCc1ccc(-c2ccc3ncnc(Nc4ccc(OCc5cccc(F)c5)c(Cl)c4)c3c2)o1 [Lapatinib] (partner 2 µM)
Summary of the method: as §1

[3] = compound: CNC(=O)c1cc(Oc2ccc(NC(=O)Nc3ccc(Cl)c(C(F)(F)F)c3)cc2)ccn1 [Sorafenib] + COc1cccc2cc(-c3nc([C@H]4CC[C@H](C(=O)O)CC4)n4ncnc(N)c34)[nH]c12 [OSI-027] (partner 0.5 µM)
Summary of the method: as §1

[4] = compound: CNC(=O)c1cc(Oc2ccc(NC(=O)Nc3ccc(Cl)c(C(F)(F)F)c3)cc2)ccn1 [Sorafenib] + Cc1nc(NC(=O)N2CCC[C@H]2C(N)=O)sc1-c1ccnc(C(C)(C)C(F)(F)F)c1 [Alpelisib] (partner 2 µM)
Summary of the method: as §1

[5] = compound: CNC(=O)c1cc(Oc2ccc(NC(=O)Nc3ccc(Cl)c(C(F)(F)F)c3)cc2)ccn1 [Sorafenib] + CC(C)C[C@H](NC(=O)[C@H](Cc1ccccc1)NC(=O)c1cnccn1)B(O)O [Bortezomib] (partner 0.002 µM)
Summary of the method: as §1

Cell Line | relative viability ([1]; first compound 0.08 µM) | relative viability ([1]; first compound 0.253 µM) | relative viability ([1]; first compound 2.53 µM) | relative viability ([1]; first compound 8 µM) | relative viability ([2]; first compound 0.08 µM) | relative viability ([2]; first compound 0.253 µM) | relative viability ([2]; first compound 2.53 µM) | relative viability ([2]; first compound 8 µM) | relative viability ([3]; first compound 0.08 µM) | relative viability ([3]; first compound 0.253 µM) | relative viability ([3]; first compound 2.53 µM) | relative viability ([3]; first compound 8 µM) | relative viability ([4]; first compound 0.253 µM) | relative viability ([4]; first compound 2.53 µM) | relative viability ([4]; first compound 8 µM) | relative viability ([5]; first compound 0.08 µM) | relative viability ([5]; first compound 0.253 µM) | relative viability ([5]; first compound 2.53 µM) | relative viability ([5]; first compound 8 µM) | relative viability ([4]; first compound 0.08 µM)
NCI-H1793 | 0.23 | 0.207 | 0.199 | 0.187 | 0.71 | 0.833 | 0.949 | 0.221 | 0.29 | 0.303 | 0.299 | 0.162 | 0.727 | 1.01 | 0.511 |  |  |  |  | 
PC-14 | 0.138 | 0.138 | 0.19 | 0.138 | 0.434 | 0.303 | 0.401 | 0.534 | 0.96 |  | 0.745 | 0.321 | 0.848 | 0.854 | 0.753 | 0.911 | 0.89 | 0.827 | 0.316 | 1
NCI-H358 | 0.242 | 0.285 | 0.295 | 0.239 | 0.453 | 0.45 | 0.558 | 0.519 |  | 0.75 | 0.839 |  | 1.12 | 0.934 | 0.337 |  |  |  |  | 1.06
LXF-289 | 0.706 | 0.648 | 0.634 | 0.588 | 0.91 | 0.831 | 0.938 |  | 0.787 | 0.814 |  | 0.764 | 1.04 | 1.05 | 1.02 | 0.98 | 0.997 | 1.03 | 0.926 | 1.09
HCC-366 |  |  |  |  | 1.21 | 0.859 | 0.805 | 1.04 | 0.951 | 0.937 | 0.866 | 0.327 | 0.484 | 0.429 | 0.307 | 1.05 | 0.98 | 0.991 | 0.831 | 0.563
HARA | 0.936 | 0.696 | 0.609 | 0.526 | 0.838 | 0.625 | 0.825 | 0.638 | 0.606 | 0.5 | 0.619 | 0.257 | 0.773 | 0.856 | 0.797 | 1.18 | 1.02 | 1.16 | 1.02 | 0.991
NCI-H2087 | 0.192 | 0.183 | 0.236 | 0.123 | 0.958 | 0.711 | 1.06 | 0.611 | 0.658 | 0.556 | 0.455 | 0.3 | 0.81 | 0.924 | 0.341 | 0.76 | 0.708 | 0.849 | 0.454 | 0.88
NCI-H520 | 0.21 | 0.216 | 0.232 | 0.218 | 0.92 | 0.71 | 0.919 | 0.402 | 0.352 | 0.254 | 0.246 | 0.246 | 0.89 | 0.902 | 0.526 | 0.828 | 0.665 | 0.599 | 0.232 | 0.963
NCI-H441 | 0.326 |  | 0.29 | 0.287 |  |  |  |  | 0.588 |  | 0.423 | 0.297 | 0.522 | 0.5 | 0.538 | 0.489 | 0.433 | 0.277 | 0.219 | 0.683
